Source: patent US4251658A, “3-(1-Pyrazolyl)-pyridazine derivatives” (Richter Gedeon Vegyeszeti Gyar Rt., priority 1977, dated 1981)

What was measured:
[1] = target: prostaglandin-A isomerase (PGAI); experiment: Prostaglandin-A isomerase (PGAI) inhibiting action, PGAI preparation from the blood-plasma of pigs; assay type: biochemical; conditions: read-out: I50% inhibiting levels in final concentrations, PGAI
Excerpt: (§1) The I50%, i.e. the index of inhibition is defined as the concentration of the substance inhibiting to 50% the function of the corresponding enzyme.

[2] = target: T1, prostaglandin dehydrogenase (PGDH) (Sus scrofa, UniProt A0ACM8QJV0); experiment: Prostaglandin dehydrogenase (PGDH) inhibiting action, PGDH preparation from pig-lung; assay type: biochemical; conditions: read-out: I50% inhibiting levels in final concentrations, PGDH
T1 construct: PGDH preparation from pig-lung; from tissue; host or cells: pig lung
T1 sequence (A0ACM8QJV0 1-266): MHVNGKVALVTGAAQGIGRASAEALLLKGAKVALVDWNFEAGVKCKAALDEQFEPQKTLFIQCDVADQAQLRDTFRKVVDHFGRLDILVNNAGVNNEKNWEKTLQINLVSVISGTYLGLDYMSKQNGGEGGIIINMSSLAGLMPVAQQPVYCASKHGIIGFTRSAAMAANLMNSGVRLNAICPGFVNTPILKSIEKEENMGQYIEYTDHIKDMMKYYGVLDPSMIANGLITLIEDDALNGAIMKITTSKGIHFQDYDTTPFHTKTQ
Excerpt: as §1

[3] = Hypotensive action in narcotized cats; assay type: in vivo; conditions: pentobarbital narcosis
Procedure: The substances were administered in doses of 5, 2.5 and 1 mg./kg., respectively, and Hydralazine (1-hydrazinophthalazine hydrochloride) was used as reference compound.

in vivo = conditions: mouse, mice, oral, read-out: Acute oral toxicity on mice LD50
[4] = Systolic blood pressure in the caudal artery of spontaneously hypertensive (Wistar-Okamoto) rats, oral treatment; assay type: in vivo; conditions: for decrease in systolic blood pressure: oral

Row | Compound | IC50 [1] [µM] | Decrease in blood pressure in Hgmm by 1 mg./kg. [3] [Hgmm] | LD50 (in vivo) [mg/kg] | other results
1 | CCOC(=O)c1cnn(-c2ccc(NC3CCCCC3)nn2)c1N [Example 5, 3-Cyclohexylamino-A] | 100 | – | – | –
2 | CCOC(=O)c1cnn(-c2ccc(NCc3ccccc3)nn2)c1N [Example 7, 3-Benzylamino-A] | – | -15 | 1000 | –
3 | CCOC(=O)c1cnn(-c2ccc(NCCN(CC)CC)nn2)c1N [Example 11, 3-(2-Diethylaminoethylamino)-A] | 44 | – | – | –
4 | CCOC(=O)c1cnn(-c2ccc(NCc3cccnc3)nn2)c1N [Example 17, 3-(3-Pyrdiylmethylamino)-A] | 25 | – | – | IC50 [2]: 200 µM
5 | CN(N)c1ccc(-n2ncc(C#N)c2N)nn1 [Example 30, 3-(1-methylhydrazino)-6-(4-cyano-5-amino-1-pyrazolyl)-pyridazine] | – | -40 | 200 | tachycardia ([4]; against Hydralazine): does not cause any significant tachycardia; decrease in systolic blood pressure ([4]; 20 mg./kg., after 2 hours): 31%; decrease in systolic blood pressure ([4]; 20 mg./kg., after 5 hours): 16%; decrease in systolic blood pressure ([4]; 20 mg./kg., after 24 hours): 15%
6 | NNC(=O)c1cnn(-c2ccc(N(CCO)CCO)nn2)c1N [Example 31, 3-[bis(2-Hydroxyethyl)-amino]-6-(4-carbazoyl-5-amino-1-pyrazolyl)-pyridazin] | – | -10 | 250 | –
7 | NNC(=O)c1cnn(-c2cccnn2)c1N [Example 32] | – | -10 | 200 | –
8 | COc1ccc(CCNc2ccc(-n3ncc(C(=O)NN)c3N)nn2)cc1OC [Example 33, 3-(3,4-Dimethoxyphenylethyl-amino)-B] | – | -10 | ~150 | –
9 | Cl.NNc1nncc2ccccc12 [Hydralazine, 1-hydrazinophthalazine hydrochloride, reference compound] | 90 | -40 | – | decrease in systolic blood pressure ([4]; 10 mg./kg. (reference), after 2 hours): 21%; decrease in systolic blood pressure ([4]; 10 mg./kg. (reference), after 5 hours): 22%; decrease in systolic blood pressure ([4]; 10 mg./kg. (reference), after 24 hours): 15%

More lines, main results first:

Row | IC50 [1] [µM] | Compound | Decrease in blood pressure in Hgmm by 1 mg./kg. [3] [Hgmm] | LD50 (in vivo) [mg/kg] | other results
10 | 50 | CCOC(=O)c1cnn(-c2ccc(NCc3ccco3)nn2)c1N [Example 6, 3-Furfurylamino-A] | – | – | IC50 [2]: 55 µM
11 | 75 | CCOC(=O)c1cnn(-c2ccc(NCc3ccccn3)nn2)c1N [Example 16, 3-(2Pyridylmethylamino)-A] | – | – | IC50 [2]: 150 µM
12 | 36 | CCOC(=O)c1cnn(-c2ccc(NCc3ccncc3)nn2)c1N [Example 18, 3-(4-Pyridylmethylamino)-A] | – | – | –
13 | 180 | CCOC(=O)c1cnn(-c2ccc(NC(C)c3ccccc3)nn2)c1N (centres unmarked) [Example 20, 3-(1-Phenylethylamino)-A] | – | – | –
